In ChEMBL document CHEMBL5042521, “A Structure-based Design Approach for Generating High Affinity BRD4 D1-Selective Chemical Probes” (J Med Chem, 2022) one finds Kd data, which are given here for two compounds.

The target of assay [1] is Bromodomain-containing protein 4 (Homo sapiens, UniProt O60885).
Description: Binding affinity to BRD4 D2 (unknown origin) assessed as dissociation constant by isothermal titration calorimetry
Assay [2] concerns the target Bromodomain-containing protein 2 (Homo sapiens, UniProt P25440).
Description: Binding affinity to BRD2 D1 (unknown origin) assessed as dissociation constant by isothermal titration calorimetry

Sequence of Bromodomain-containing protein 2 (P25440 whole entry): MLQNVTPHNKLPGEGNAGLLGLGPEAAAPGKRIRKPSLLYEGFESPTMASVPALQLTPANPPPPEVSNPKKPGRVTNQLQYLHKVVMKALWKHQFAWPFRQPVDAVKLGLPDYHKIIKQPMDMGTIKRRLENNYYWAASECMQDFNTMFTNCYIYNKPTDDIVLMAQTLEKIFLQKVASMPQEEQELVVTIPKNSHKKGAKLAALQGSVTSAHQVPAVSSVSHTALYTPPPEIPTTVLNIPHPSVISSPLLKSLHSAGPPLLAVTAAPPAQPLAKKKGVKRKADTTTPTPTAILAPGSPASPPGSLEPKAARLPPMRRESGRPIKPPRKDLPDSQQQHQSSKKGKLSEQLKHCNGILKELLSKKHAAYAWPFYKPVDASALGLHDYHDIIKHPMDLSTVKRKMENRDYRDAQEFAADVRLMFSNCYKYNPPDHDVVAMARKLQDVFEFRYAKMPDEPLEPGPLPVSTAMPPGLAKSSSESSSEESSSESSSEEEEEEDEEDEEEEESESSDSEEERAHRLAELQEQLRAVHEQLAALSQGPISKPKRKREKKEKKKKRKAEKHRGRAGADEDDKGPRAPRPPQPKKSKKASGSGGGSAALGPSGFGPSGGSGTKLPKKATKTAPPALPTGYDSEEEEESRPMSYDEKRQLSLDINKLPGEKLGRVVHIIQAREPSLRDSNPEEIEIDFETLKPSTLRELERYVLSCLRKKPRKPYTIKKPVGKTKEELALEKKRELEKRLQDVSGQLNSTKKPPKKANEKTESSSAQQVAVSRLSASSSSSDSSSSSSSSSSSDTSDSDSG

On to `Cc1ccc(C(C)C)cc1Oc1nccc(-c2c(-c3ccc(C(F)(F)F)cc3)ncn2[C@H]2CCN(CCN(C)C)C2)n1`, for which the Kd entry in assay [1] and in assay [2] was “Not Active” each time.

Consider `Cc1ccc(C(C)C)cc1Oc1nccc(-c2c(-c3ccc(C(F)(F)F)cc3)ncn2C2CCN(CCN(C)C)CC2)n1`, for which the Kd result in assay [1] and in assay [2] was “Not Active” throughout.
